Patent US8765730B2 (Hoffmann-La Roche Inc, priority 2010, dated 2014)
pEC50: −log10 of the molar value. Read-outs that look alike come from different tables or passages of the source.

Biological target: T1, human GPBAR1 receptor (Homo sapiens, UniProt Q8TDU6)
T1 construct: expressed in transfected cells
T1 sequence (Q8TDU6 1-330): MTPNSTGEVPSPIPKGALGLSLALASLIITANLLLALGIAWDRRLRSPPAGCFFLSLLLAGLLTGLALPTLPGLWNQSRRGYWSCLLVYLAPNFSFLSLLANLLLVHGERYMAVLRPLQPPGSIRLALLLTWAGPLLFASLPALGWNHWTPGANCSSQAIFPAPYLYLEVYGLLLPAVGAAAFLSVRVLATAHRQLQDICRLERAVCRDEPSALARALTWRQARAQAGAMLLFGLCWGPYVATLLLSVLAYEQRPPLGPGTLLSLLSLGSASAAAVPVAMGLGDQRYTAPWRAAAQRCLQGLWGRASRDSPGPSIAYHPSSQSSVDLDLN
Experiment: functional cAMP assay in CHO-dhfr(minus) cells expressing human GPBAR1 receptors
Format: cell-based
Conditions: 30 min at 30° C.
Outline: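 Agonist cAMP read-out: stable GPBAR1 CHO-dhfr− clone, 30 min compound exposure at 30° C following 30 min IBMX (1 mM) preincubation in Krebs Ringer bicarbonate. Time-resolved energy-transfer detection gives EC50; parental CHO cells serve as counter-screen.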

[1] = human EC50, functional cAMP assay

pEC50 [1] | pEC50 (functional cAMP assay, read-out: human EC50) | SMILES
7.49 |  | Cc1cc(/C(C[C@@H](c2ccc(-c3ccc(C(=O)O)cc3)cc2)c2ccc(Cl)cc2C)=N/O)ccn1 [Example 296, 4′-[(S)-1-(4-Chloro-2-methyl-phenyl)-3-[(E)-hydroxyimino]-3-(2-methyl-pyridin-4-yl)-propyl]-biphenyl-4-carboxylic acid]
 | 7.72 | O/N=C(\CC(c1ccccc1)c1ccc(Br)cc1)c1ccncc1 (stereo not shown) [Example 5, (E)-3-(4-Bromo-phenyl)-3-phenyl-1-pyridin-4-yl-propan-1-one oxime]
6.23 |  | Cc1ccccc1C(C/C(=N\O)c1ccc(=O)n(C)c1)c1ccc(C(=O)NC2(CO)CC2)cc1 (stereo not shown) [Example 308, (E)-4-(3-(Hydroxyimino)-3-(1-methyl-6-oxo-1,6-dihydropyridin-3-yl)-1-o-tolylpropyl)-N-(1-(hydroxymethyl)cyclopropyl)benzamide]
7.52 |  | Cn1cc(/C(CC(c2ccc(S(C)(=O)=O)cc2)c2ccccc2Cl)=N/O)ccc1=O (stereo not shown) [Example 249, (E)-5-(3-(2-Chlorophenyl)-1-(hydroxyimino)-3-(4-(methylsulfonyl)phenyl)propyl)-1-methylpyridin-2(1H)-one]
7.62 |  | Cn1cc(/C(CC(c2ccc(Br)cc2)c2ccc(Cl)cc2F)=N/O)ccc1=O (single isomer, unassigned; (+)) [Example 239, (+)-5-{3-(4-Bromo-phenyl)-3-(4-chloro-2-fluoro-phenyl)-1-[(E)-hydroxyimino]-propyl}-1-methyl-1H-pyridin-2-one]
6.15 |  | COc1cc(C(CC(c2ccc(Br)cc2)c2ccccc2C)=NO)ccn1 (racemic) [Example 109, 3-(4-Bromo-phenyl)-1-(2-methoxy-pyridin-4-yl)-3-o-tolyl-propan-1-one oxime]
6.59 |  | Cc1cc(C(CC(c2cccc(C#CCO)c2)c2ccccc2C)=NO)ccn1 (racemic) [Example 106, 3-[3-(3-Hydroxy-prop-1-ynyl)-phenyl]-1-(2-methyl-pyridin-4-yl)-3-o-tolyl-propan-1-one oxime]
7.74 |  | COC(=O)CNC(=O)c1ccc(-c2ccc(C(C/C(=N\O)c3ccc(=O)n(C)c3)c3ccc(Cl)cc3C)cc2)cc1 (stereo not shown) [Example 228, (E)-methyl 2-(4′-(1-(4-chloro-2-methylphenyl)-3-(hydroxyimino)-3-(1-methyl-6-oxo-1,6-dihydropyridin-3-yl)propyl)biphenyl-4-ylcarboxamido)acetate]
5.28 |  | CN(CCO)C(=O)c1cccc(C(C/C(=N\O)c2ccc(=O)n(C)c2)c2ccc(Cl)cc2F)c1 (stereo not shown) [Example 321, (E)-3-(1-(4-Chloro-2-fluorophenyl)-3-(hydroxyimino)-3-(1-methyl-6-oxo-1,6-dihydropyridin-3-yl)propyl)-N-(2-hydroxyethyl)-N-methylbenzamide]
7.15 |  | Cc1ccccc1C(C/C(=N\O)c1ccc(=O)n(C)c1)c1ccc(C(=O)NC[C@@H](C)O)cc1 (stereo partly drawn) [Example 248, 4-((E)-3-(Hydroxyimino)-3-(1-methyl-6-oxo-1,6-dihydropyridin-3-yl)-1-o-tolylpropyl)-N-((R)-2-hydroxypropyl)benzamide]
7.09 |  | Cn1cc(/C(CC(c2ccc(S(C)(=O)=O)cc2)c2cc(Cl)cc(Cl)c2)=N/O)ccc1=O (stereo not shown) [Example 352, (E)-5-(3-(3,5-Dichlorophenyl)-1-(hydroxyimino)-3-(4-(methylsulfonyl)phenyl)propyl)-1-methylpyridin-2(1H)-one]
6.81 |  | Cn1cc(/C(CC(c2ccc(-c3ccc(CC(=O)O)cc3)cc2)c2ccc(Cl)cc2F)=N/O)ccc1=O (single isomer, unassigned) [Example 461, {4′-[(−)-1-(4-Chloro-2-fluoro-phenyl)-3-[(E)-hydroxyimino]-3-(1-methyl-6-oxo-1,6-dihydro-pyridin-3-yl)-propyl]-biphenyl-4-yl}-acetic acid]
6.79 |  | Cc1ccccc1[C@H](C/C(=N\O)c1cc(Cl)nc(Cl)c1)c1ccc(-c2ccc(C(=O)O)cc2)cc1 [Example 146, (E,R)-4′-(3-(2,6-Dichloropyridin-4-yl)-3-(hydroxyimino)-1-o-tolylpropyl)biphenyl-4-carboxylic acid]

More lines, now with the values behind:

SMILES | pEC50 [1] | pEC50 (functional cAMP assay, read-out: human EC50)
Cc1ccccc1C(C/C(=N\O)c1ccc(=O)n(C)c1)c1ccc(C(=O)NCCC(=O)O)cc1 (stereo not shown) [Example 214, 3-{4-[3-[(E)-Hydroxyimino]-3-(1-methyl-6-oxo-1,6-dihydro-pyridin-3-yl)-1-o-tolyl-propyl]-benzoylamino}-propionic acid] | 5.91 | 
Cc1cc(/C(C[C@H](c2ccc(N3CCS(=O)(=O)CC3)cc2)c2ccccc2C)=N/O)ccn1 [Example 271, (E,R)-3-[4-(1,1-Dioxo-1λ6-thiomorpholin-4-yl)-phenyl]-1-(2-methyl-pyridin-4-yl)-3-o-tolyl-propan-1-one oxime] | 7.96 | 
ON=C(CC(c1ccccc1)c1ccc(Br)cc1)c1ccnc(Cl)c1 (racemic) [Example 46, 3-(4-Bromo-phenyl)-1-(2-chloro-pyridin-4-yl)-3-phenyl-propan-1-one oxime] | 5.87 | 
O/N=C(\CC(c1ccccc1)c1cccc(Br)c1)c1ccncc1 (stereo not shown) [Example 12, (E)-3-(3-Bromo-phenyl)-3-phenyl-1-pyridin-4-yl-propan-1-one oxime] | 7.04 | 
Cn1cc(/C(CC(c2ccc(-c3ccc(C(=O)O)cc3)cc2)c2ccc(F)cc2Cl)=N/O)ccc1=O (stereo not shown) [Example 412, (E)-4′-(1-(2-chloro-4-fluorophenyl)-3-(hydroxyimino)-3-(1-methyl-6-oxo-1,6-dihydropyridin-3-yl)propyl)biphenyl-4-carboxylic acid] | 7.52 | 
Cc1ccccc1C(C/C(=N\O)c1ccc(=O)n(C)c1)c1ccc(C(=O)N(C)CCO)cc1 (stereo not shown) [Example 209, N-(2-Hydroxy-ethyl)-4-[3-[(E)-hydroxyimino]-3-(1-methyl-6-oxo-1,6-dihydro-pyridin-3-yl)-1-o-tolyl-propyl]-N-methyl-benzamide] | 6.35 | 
Cc1ccccc1C(C/C(=N\O)c1ccc(=O)n(C)c1)c1ccc(Oc2cccc(C(=O)O)c2)cc1F (stereo not shown) [Example 235, 3-{3-Fluoro-4-[3-[(E)-hydroxyimino]-3-(1-methyl-6-oxo-1,6-dihydro-pyridin-3-yl)-1-o-tolyl-propyl]-phenoxy}-benzoic acid] | 7.37 | 
Cc1cc(F)ccc1[C@H](C/C(=N\O)c1ccc(=O)n(C)c1)c1ccc(-c2ccc(S(N)(=O)=O)cc2)cc1 (single isomer, unassigned) [Example 406, (−)-4′-[1-(4-Fluoro-2-methyl-phenyl)-3-[(E)-hydroxyimino]-3-(1-methyl-6-oxo-1,6-dihydro-pyridin-3-yl)-propyl]-biphenyl-4-sulfonic acid amide] | 8.05 | 
Cc1ccccc1[C@@H](C/C(=N\O)c1ccc(=O)n(C)c1)c1ccc(C2CCC(C(=O)O)CC2)cc1 (stereo partly drawn) [Example 487, (S,E)-4-(4-(3-(hydroxyimino)-3-(1-methyl-6-oxo-1,6-dihydropyridin-3-yl)-1-o-tolylpropyl)-phenyl)cyclohexanecarboxylic acid] | 6.18 | 
Cc1cc(/C(C[C@H](c2ccc(N(C)CCO)cc2)c2ccccc2C)=N/O)ccn1 [Example 268, (E,R)-3-{4-[(2-Hydroxy-ethyl)-methyl-amino]-phenyl}-1-(2-methyl-pyridin-4-yl)-3-o-tolyl-propan-1-one oxime] | 7.89 | 
Cc1cc(/C(CC(c2cccc(Br)c2)c2ccccc2C)=N/O)cc(F)n1 (stereo not shown) [Example 122, (E)-3-(3-Bromo-phenyl)-1-(2-fluoro-6-methyl-pyridin-4-yl)-3-o-tolyl-propan-1-one oxime] | 6.70 | 
Cc1cc(C(CC(c2ccc(Br)cc2)c2ccccc2C)=NO)cc(F)n1 (racemic) [Example 126, 3-(4-Bromo-phenyl)-1-(2-fluoro-6-methyl-pyridin-4-yl)-3-o-tolyl-propan-1-one oxime] | 7.21 | 
Cc1cc(/C(C[C@H](c2ccc(C(=O)N[C@H]3CC[C@H](C(=O)O)CC3)cc2)c2ccccc2C)=N/O)ccn1 [Example 276, Trans-4-{4-[(R)-3-[(E)-Hydroxyimino]-3-(2-methyl-pyridin-4-yl)-1-o-tolyl-propyl]-benzoylamino}-cyclohexanecarboxylic acid] | 7.23 | 
Cn1cc(/C(CC(c2cccc(C(=O)N3CCOCC3)c2)c2ccc(Cl)cc2F)=N/O)ccc1=O (stereo not shown) [Example 322, (E)-5-(3-(4-Chloro-2-fluorophenyl)-1-(hydroxyimino)-3-(3-(morpholine-4-carbonyl)phenyl)propyl)-1-methylpyridin-2(1H)-one] | 5.40 | 
Cc1ccccc1C(CC(=NO)c1ccncc1)c1cccc(C(=O)O)c1 (racemic) [Example 71, 3-{3-[Hydroxyimino]-3-pyridin-4-yl-1-o-tolyl-propyl}-benzoic acid] | 5.79 | 
Cc1cc(/C(CC(c2ccc(C(=O)O)cc2)c2ccc(F)cc2F)=N/O)ccn1 (stereo not shown) [Example 431, 4-[1-(2,4-Difluoro-phenyl)-3-[(E)-hydroxyimino]-3-(2-methyl-pyridin-4-yl)-propyl]-benzoic acid] | 6.33 | 
Cc1cc(/C(CC(c2ccc(C(=O)N3CCOCC3)cc2)c2ccc(F)cc2F)=N/O)ccn1 (stereo not shown) [Example 438, 3-(2,4-Difluoro-phenyl)-1-(2-methyl-pyridin-4-yl)-3-[4-(morpholine-4-carbonyl)-phenyl]-propan-1-one oxime] | 6.88 | 
Cc1cc(/C(CC(c2ccc(-c3ccc(C(=O)O)cc3)cc2)c2ccc(Cl)cc2C)=N/O)ccn1 (single isomer, unassigned) [Example 396, (−)-4′-[1-(4-Chloro-2-methyl-phenyl)-3-[(E)-hydroxyimino]-3-(2-methyl-pyridin-4-yl)-propyl]-biphenyl-4-carboxylic acid; compound with triethylamine 1:0.7] | 7.54 | 
